Patent US20100311714A1, “1H-IMIDAZO[4,5-c]QUINOLINONE COMPOUNDS” (priority 2009, published 2010)
≈ marks a conversion by molar mass, not a printed value.

What was measured:
[1] = target: T1, PI3K gamma (Homo sapiens, UniProt P48736); experiment: PI3K gamma kinase assay (Kinase-Glo luminescence); type: biochemical; settings: read-out: PI3Kgamma/IC50
T1 construct: His tag (C); made in house; host or cells: construct from Roger Williams lab (pVL1393); baculovirus BV950; Tn5 (Trichoplusia ni) or TiniPro insect cells
Procedure: In a more preferred assay, the kinase reaction is performed in a final volume of 10 μL per well of a low volume non binding CORNING, 384 well black plate (Cat. No. #3676). The final concentrations of ATP and phosphatidyl inositol (PI) in the assay are 1 μM and 10 μg/mL respectively. The reaction is started by the addition of ATP.
The components of the assay are added per well as follows:
50 nL test compounds in 90% DMSO per well, in columns 1-20, 8 concentrations (⅓ and 1/3.33 serial dilution step) in single. • Low control: […] of 90% DMSO in half the wells of columns 23-24 (0.45% in final). • High control: 50 nL of reference compound (e.g. compound of Example 7 in WO 2006/122806) in the other half of columns 23-24 (2.5 μM in final). • Standard: 50 nL of reference compound as just mentioned diluted as the test compounds in columns 21-22 • 20 mL ‘buffer’ are prepared per assay: • 200 μL of 1M TRIS HCl pH7.5 (10 mM in final) • 60 μL of 1M MgCl2 (3 mM in final) • 500 μL of 2M NaCl (50 mM in final) • 100 μL of 10% CHAPS (0.05% in final) • 200 μL of 100 mM DTT (1 mM in final) • 18.94 mL of nanopure water • 10 mL ‘PI’ are prepared per assay: • 200 μL of 1 mg/ml L-alpha-Phosphatidylinositol (Liver Bovine, Avanti Polar Lipids Cat. No. 840042C MW=909.12) prepared in 3% OctylGlucoside (10 μg/ml in final) • 9.8 mL of ‘buffer’ • 10 mL ‘ATP’ are prepared per assay: • 6.7 μL of 3 mM stock of ATP giving a final concentration of 1 μM per well • 10 mL of ‘buffer’ • 2.5 mL of each PI3K construct are prepared per assay in ‘PI’ with the following final concentration: • 10 nM PI3K alfa EMV B1075 • 25 nM beta EMV BV949 • 10 nM delta EMV BV1060 • 150 nM gamma EMV BV950 • 5 μL of ‘PI/PI3K’ are added per well. • 5 μl ‘ATP’ are added per well to start the reaction. • The plates are then incubated at room temperature for 60 minutes (alfa, beta, delta) or 120 minutes (gamma). • The reaction is terminated by the addition of 10 μL Kinase-Glo (Promega Cat. No. #6714). • The assay plates are read after 10 minutes in Synergy 2 reader (BioTek, Vermont USA) with an integration time of 100 milliseconds and sensitivity set to 191. • Output: The High control is around 60′000 counts and the Low control is 30′000 or lower • This luminescence assay gives a useful Z′ ratio between 0.4 and 0.7
PI3K gamma is purified in two chromatographic steps: immobilized metal affinity chromatography (IMAC) on a Ni Sepharose resin (GE Healthcare) and gel filtration (GFC) utilizing a Superdex 200 26/60 column (GE Healthcare). All buffers are chilled to 4° C. and lysis is performed chilled on ice. Column fractionation is performed rapidly at room temperature. Typically frozen insect cells are lysed in a hypertonic lysis buffer and applied to a prepared IMAC column. The resin is washed with 3-5 column volumes of lysis buffer, followed by 3-5 column volumes wash buffer containing 45 mM imidazole, and the target protein is then eluted with a buffer containing 250 mM imidazole. Fractions are analyzed by Coomassie stained SDS-PAGE gels, and fractions containing target protein are pooled and applied to a prepared GFC column. Fractions from the GFC column are analyzed by Coomassie stained SDS-PAGE gels, and fractions containing target protein are pooled. The final pool is dialyzed into a storage buffer containing 50% glycerol and stored at −20° C. The final pool is assayed for activity in the phosphoinostitol kinase assay.
IC50 is determined by a four parameter curve fitting routine that comes along with “excel fit”. A 4 Parameter logistic equation is used to calculate IC50 values (IDBS XLfit) of the percentage inhibition of each compound at 8 concentrations (usually 10, 3.0, 1.0, 0.3, 0.1, 0.030, 0.010 and 0.003 μM). Alternatively, IC50 values are calculated using idbsXLfit model 204, which is a 4 parameter logistic model.

[2] = High-throughput equilibrium solubility at pH 6.8; type: physicochemical; settings: pH 6.8, aqueous buffer, thermodynamic from solid; read-out: HT-Eq Sol/pH 6.8
Procedure, shortened: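 Following the procedure of Zhou et al. (2007), compound solubility was determined at pH 6.8.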

T1 sequence (P48736 144-1102 limits assumed): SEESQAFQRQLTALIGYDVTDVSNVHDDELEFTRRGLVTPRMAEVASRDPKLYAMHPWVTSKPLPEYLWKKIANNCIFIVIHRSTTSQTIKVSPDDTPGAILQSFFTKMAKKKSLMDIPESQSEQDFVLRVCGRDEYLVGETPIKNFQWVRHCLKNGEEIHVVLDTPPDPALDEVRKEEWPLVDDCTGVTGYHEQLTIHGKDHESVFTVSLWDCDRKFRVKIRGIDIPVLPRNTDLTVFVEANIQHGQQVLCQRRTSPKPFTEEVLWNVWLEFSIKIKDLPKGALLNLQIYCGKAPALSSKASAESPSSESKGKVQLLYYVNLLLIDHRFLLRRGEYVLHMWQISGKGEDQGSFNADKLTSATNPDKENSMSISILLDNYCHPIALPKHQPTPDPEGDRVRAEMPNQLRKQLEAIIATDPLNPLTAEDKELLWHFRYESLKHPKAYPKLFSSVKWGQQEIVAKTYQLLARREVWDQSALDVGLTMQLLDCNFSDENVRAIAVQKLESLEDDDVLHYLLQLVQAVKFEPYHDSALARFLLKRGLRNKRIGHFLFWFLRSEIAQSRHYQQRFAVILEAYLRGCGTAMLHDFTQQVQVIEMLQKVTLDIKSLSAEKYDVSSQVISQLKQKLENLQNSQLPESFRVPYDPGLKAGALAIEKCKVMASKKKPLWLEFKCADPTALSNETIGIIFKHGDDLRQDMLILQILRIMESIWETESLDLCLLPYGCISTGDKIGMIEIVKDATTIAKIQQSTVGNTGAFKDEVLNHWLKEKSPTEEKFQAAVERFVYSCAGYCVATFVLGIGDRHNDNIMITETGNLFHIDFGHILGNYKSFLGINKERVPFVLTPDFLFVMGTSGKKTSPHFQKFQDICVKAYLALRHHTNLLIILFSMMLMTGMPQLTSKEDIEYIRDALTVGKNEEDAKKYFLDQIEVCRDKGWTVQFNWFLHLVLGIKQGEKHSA

SMILES | IC50 [1] | solubility thermodynamic [2]
COc1ccc(-c2ccc3ncc4c(c3c2)n(-c2cccnc2OC)c(=O)n4C)cn1 [Example 1.1, 1-(2-Methoxy-pyridin-3-yl)-8-(6-methoxy-pyridin-3-yl)-3-methyl-1,3-dihydro-imidazo[4,5-c]quinolin-2-one] | 0.237 µM | –
COc1ccc(-c2ccc3ncc4c(c3c2)n(-c2cccnc2)c(=O)n4C)cc1OC [Example 5.2, 8-(3,4-Dimethoxy-phenyl)-3-methyl-1-pyridin-3-yl-1,3-dihydro-imidazo[4,5-c]quinolin-2-one] | 0.365 µM | –
CNc1ccc(-c2ccc3ncc4c(c3c2)n(-c2cccnc2OC)c(=O)n4C)cn1 [Example 1.4, 1-(2-Methoxy-pyridin-3-yl)-3-methyl-8-(6-methylamino-pyridin-3-yl)-1,3-dihydro-imidazo[4,5-c]quinolin-2-one] | 0.227 µM | –
COc1ccc(-c2ccc3ncc4c(c3c2)n(-c2cccnc2)c(=O)n4C)cn1 [Example 5.4, 8-(6-Methoxy-pyridin-3-yl)-3-methyl-1-pyridin-3-yl-1,3-dihydro-imidazo[4,5-c]quinolin-2-one] | 0.377 µM | –
COc1ccc(-c2ccc3ncc4c(c3c2)n(-c2ncccc2C)c(=O)n4C)cn1 [Example 3.13, 8-(6-Methoxy-pyridin-3-yl)-3-methyl-1-(3-methyl-pyridin-2-yl)-1,3-dihydro-imidazo[4,5-c]quinolin-2-one] | 0.517 µM | –
COc1ncccc1-n1c(=O)n(C)c2cnc3ccc(-c4cnc(N)c(C(F)(F)F)c4)cc3c21 [Example 1.3, 8-(6-Amino-5-trifluoromethyl-pyridin-3-yl)-1-(2-methoxy-pyridin-3-yl)-3-methyl-1,3-dihydro-imidazo[4,5-c]quinolin-2-one] | 0.131 µM | –
CCNc1cc(-c2ccc3ncc4c(c3c2)n(-c2ccc(OC)nc2Cl)c(=O)n4C)cnc1C [Example 18.1, 1-(2-Chloro-6-methoxy-pyridin-3-yl)-8-(5-ethylamino-6-methyl-pyridin-3-yl)-3-methyl-1,3-dihydro-imidazo[4,5-c]quinolin-2-one] | – | 10 µg/mL (≈ 21.1 µM)
Cc1cccnc1-n1c(=O)n(C)c2cnc3ccc(-c4cnc5ccccc5c4)cc3c21 [Example 3.8, 3-Methyl-1-(3-methyl-pyridin-2-yl)-8-quinolin-3-yl-1,3-dihydro-imidazo[4,5-c]quinolin-2-one] | 0.404 µM | –
COCCN(C)c1ccc(-n2c(=O)n(C)c3cnc4ccc(-c5cnc6c(ccn6C)c5)cc4c32)c(C)n1 [Example 15.7, 1-{6-[(2-Methoxy-ethyl)-methyl-amino]-2-methyl-pyridin-3-yl}-3-methyl-8-(1-methyl-1H-pyrrolo[2,3-b]pyridin-5-yl)-1,3-dihydro-imidazo[4,5-c]quinolin-2-one] | – | 4 µg/mL (≈ 7.88 µM)
COCCN(C)c1ccc(-n2c(=O)n(C)c3cnc4ccc(-c5cncc(N)c5)cc4c32)c(C)n1 [Example 15.8, 8-(5-Amino-pyridin-3-yl)-1-{6-[(2-methoxy-ethyl)-methyl-amino]-2-methyl-pyridin-3-yl}-3-methyl-1,3-dihydro-imidazo[4,5-c]quinolin-2-one] | – | 56 µg/mL (≈ 119 µM)
COc1ncccc1-n1c(=O)n(C)c2cnc3ccc(-c4ccc(F)nc4)cc3c21 [Example 1.8, 8-(6-Fluoro-pyridin-3-yl)-1-(2-methoxy-pyridin-3-yl)-3-methyl-1,3-dihydro-imidazo[4,5-c]quinolin-2-one] | – | 4 µg/mL (≈ 9.97 µM)
CCOc1ccc(-c2ccc3ncc4c(c3c2)n(-c2cccnc2OC)c(=O)n4C)cn1 [Example 1.5, 8-(6-Ethoxy-pyridin-3-yl)-1-(2-methoxy-pyridin-3-yl)-3-methyl-1,3-dihydro-imidazo[4,5-c]quinolin-2-one] | 0.211 µM | –
Cc1nc(F)ccc1-n1c(=O)n(C)c2cnc3ccc(-c4cnc(N)c(CO)c4)cc3c21 [Example 7.17, 8-(6-Amino-5-hydroxymethyl-pyridin-3-yl)-1-(6-fluoro-2-methyl-pyridin-3-yl)-3-methyl-1,3-dihydro-imidazo[4,5-c]quinolin-2-one] | – | > 430 µg/mL
COc1ccc(-n2c(=O)n(C)c3cnc4ccc(-c5cnc(N(C)C)nc5)cc4c32)c(Cl)n1 [Example 18.3, 1-(2-Chloro-6-methoxy-pyridin-3-yl)-8-(2-dimethylamino-pyrimidin-5-yl)-3-methyl-1,3-dihydro-imidazo[4,5-c]quinolin-2-one] | – | 37 µg/mL (≈ 80.1 µM)
COc1cc(-c2ccc3ncc4c(c3c2)n(-c2ccc(N(C)C)nc2C)c(=O)n4C)cnc1CO [Example 19.4, 1-(6-Dimethylamino-2-methyl-pyridin-3-yl)-8-(6-hydroxymethyl-5-methoxy-pyridin-3-yl)-3-methyl-1,3-dihydro-imidazo[4,5-c]quinolin-2-one] | – | 110 µg/mL (≈ 234 µM)
Cc1nc(N(C)C)ccc1-n1c(=O)n(C)c2cnc3ccc(-c4cncc(N)c4)cc3c21 [Example 19.5, 8-(5-Amino-pyridin-3-yl)-1-(6-dimethylamino-2-methyl-pyridin-3-yl)-3-methyl-1,3-dihydro-imidazo[4,5-c]quinolin-2-one] | – | 10 µg/mL (≈ 23.5 µM)
CNc1ncc(-c2ccc3ncc4c(c3c2)n(-c2ccc(F)nc2C)c(=O)n4C)cc1C(F)(F)F [Example 7.13, 1-(6-Fluoro-2-methyl-pyridin-3-yl)-3-methyl-8-(6-methylamino-5-trifluoromethyl-pyridin-3-yl)-1,3-dihydro-imidazo[4,5-c]quinolin-2-one] | – | 20 µg/mL (≈ 41.5 µM)
CCNc1cc(-c2ccc3ncc4c(c3c2)n(-c2ccc(OCCOC)nc2C)c(=O)n4C)cnc1C [Example 13.4, 8-(5-Ethylamino-6-methyl-pyridin-3-yl)-1-[6-(2-methoxy-ethoxy)-2-methyl-pyridin-3-yl]-3-methyl-1,3-dihydro-imidazo[4,5-c]quinolin-2-one] | – | 7 µg/mL (≈ 14 µM)
COCC(=O)Nc1ccc(-n2c(=O)n(C)c3cnc4ccc(-c5cncc(N)c5)cc4c32)c(C)n1 [Example 20.1, N-{5-[8-(5-Amino-pyridin-3-yl)-3-methyl-2-oxo-2,3-dihydro-imidazo[4,5-c]quinolin-1-yl]-6-methyl-pyridin-2-yl}-2-methoxy-acetamide] | – | 28 µg/mL (≈ 59.6 µM)
Cc1cc(F)ncc1-n1c(=O)n(C)c2cnc3ccc(-c4cnc(N)c(C(F)(F)F)c4)cc3c21 [Example 16.1, 8-(6-Amino-5-trifluoromethyl-pyridin-3-yl)-1-(6-fluoro-4-methyl-pyridin-3-yl)-3-methyl-1,3-dihydro-imidazo[4,5-c]quinolin-2-one] | – | 3 µg/mL (≈ 6.4 µM)
CNc1ncc(-c2ccc3ncc4c(c3c2)n(-c2ccc(N(C)C)nc2C)c(=O)n4C)cn1 [Example 19.1, 1-(6-Dimethylamino-2-methyl-pyridin-3-yl)-3-methyl-8-(2-methylamino-pyrimidin-5-yl)-1,3-dihydro-imidazo[4,5-c]quinolin-2-one] | – | 7 µg/mL (≈ 15.9 µM)
COc1ccc(-n2c(=O)n(C)c3cnc4ccc(-c5cnc(CO)c(OC)c5)cc4c32)c(C)n1 [Example 11.8, 8-(6-Hydroxymethyl-5-methoxy-pyridin-3-yl)-1-(6-methoxy-2-methyl-pyridin-3-yl)-3-methyl-1,3-dihydro-imidazo[4,5-c]quinolin-2-one] | – | 26 µg/mL (≈ 56.8 µM)
